Source: the supplement of paper PMC10307832

What was measured:
Assay in all cases: relative viability (nuclei count vs DMSO), 5 days (fraction); higher = more cells survive
Crizotinib + Tozasertib = compound: C[C@@H](Oc1cc(-c2cnn(C3CCNCC3)c2)cnc1N)c1c(Cl)ccc(F)c1Cl [Crizotinib] + Cc1cc(Nc2cc(N3CCN(C)CC3)nc(Sc3ccc(NC(=O)C4CC4)cc3)n2)n[nH]1 [Tozasertib] (partner 0.1 µM)
Procedure, shortened: (§1)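 Lung cancer cell lines, seeded in 1536-well plates, were treated the following day by pin tool with a single drug or with five library-drug doses (not always all listed) in √10 steps on top of a fixed anchor-drug dose. Cells were fixed and nuclei stained in one step after 5 days, and nuclei were counted. Relative viability is the nuclei count for treated wells divided by that for vehicle wells, reported as medians of duplicate plates.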

Crizotinib + Alpelisib = compound: C[C@@H](Oc1cc(-c2cnn(C3CCNCC3)c2)cnc1N)c1c(Cl)ccc(F)c1Cl [Crizotinib] + Cc1nc(NC(=O)N2CCC[C@H]2C(N)=O)sc1-c1ccnc(C(C)(C)C(F)(F)F)c1 [Alpelisib] (partner 2 µM)
Procedure, shortened: as §1

Crizotinib + Decitabine = compound: C[C@@H](Oc1cc(-c2cnn(C3CCNCC3)c2)cnc1N)c1c(Cl)ccc(F)c1Cl [Crizotinib] + Nc1ncn([C@H]2C[C@H](O)[C@@H](CO)O2)c(=O)n1 [Decitabine] (partner 2 µM)
Procedure, shortened: as §1

Carfilzomib + Foretinib = compound: CC(C)C[C@H](NC(=O)[C@H](CCc1ccccc1)NC(=O)CN1CCOCC1)C(=O)N[C@@H](Cc1ccccc1)C(=O)N[C@@H](CC(C)C)C(=O)[C@@]1(C)CO1 [Carfilzomib] + COc1cc2c(Oc3ccc(NC(=O)C4(C(=O)Nc5ccc(F)cc5)CC4)cc3F)ccnc2cc1OCCCN1CCOCC1 [Foretinib] (partner 0.25 µM)
Procedure, shortened: as §1

Olaparib + Phenformin = compound: O=C(c1cc(Cc2n[nH]c(=O)c3ccccc23)ccc1F)N1CCN(C(=O)C2CC2)CC1 [Olaparib] + N=C(N)NC(=N)NCCc1ccccc1 [Phenformin] (partner 250 µM)
Procedure, shortened: as §1

Cell Line: NCI-H1793
- relative viability (Crizotinib + Tozasertib; first compound 0.03162 µM): 0.342
- relative viability (Crizotinib + Tozasertib; first compound 0.1 µM): 0.32
- relative viability (Crizotinib + Tozasertib; first compound 1 µM): 0.449
- relative viability (Crizotinib + Alpelisib; first compound 0.01 µM): 0.703
- relative viability (Crizotinib + Alpelisib; first compound 0.03162 µM): 0.789
- relative viability (Crizotinib + Alpelisib; first compound 0.1 µM): 0.729
- relative viability (Crizotinib + Alpelisib; first compound 1 µM): 0.872
- relative viability (Crizotinib + Decitabine; first compound 0.03162 µM): 0.522
- relative viability (Crizotinib + Decitabine; first compound 0.1 µM): 0.53
- relative viability (Crizotinib + Decitabine; first compound 1 µM): 0.555
- relative viability (Carfilzomib + Foretinib; first compound 0.003162 µM): 0.664
- relative viability (Carfilzomib + Foretinib; first compound 0.01 µM): 0.823
- relative viability (Carfilzomib + Foretinib; first compound 0.03162 µM): 0.707
- relative viability (Carfilzomib + Foretinib; first compound 0.1 µM): 0.393
- relative viability (Olaparib + Phenformin; first compound 0.08 µM): 0.341
- relative viability (Olaparib + Phenformin; first compound 0.253 µM): 0.348
- relative viability (Olaparib + Phenformin; first compound 2.53 µM): 0.305
- relative viability (Olaparib + Phenformin; first compound 8 µM): 0.287
